This passage reports IC50 results from US11339130B1 (Blade Therapeutics, Inc., priority 2016, dated 2022).

Where two headings read alike, the source gives them in different places. Bounds are passed on as bounds.

The target in one experiment is T1, Human Calpain 1/NS1 (Homo sapiens, UniProt P07384).
T1 sequence (P07384 1-714): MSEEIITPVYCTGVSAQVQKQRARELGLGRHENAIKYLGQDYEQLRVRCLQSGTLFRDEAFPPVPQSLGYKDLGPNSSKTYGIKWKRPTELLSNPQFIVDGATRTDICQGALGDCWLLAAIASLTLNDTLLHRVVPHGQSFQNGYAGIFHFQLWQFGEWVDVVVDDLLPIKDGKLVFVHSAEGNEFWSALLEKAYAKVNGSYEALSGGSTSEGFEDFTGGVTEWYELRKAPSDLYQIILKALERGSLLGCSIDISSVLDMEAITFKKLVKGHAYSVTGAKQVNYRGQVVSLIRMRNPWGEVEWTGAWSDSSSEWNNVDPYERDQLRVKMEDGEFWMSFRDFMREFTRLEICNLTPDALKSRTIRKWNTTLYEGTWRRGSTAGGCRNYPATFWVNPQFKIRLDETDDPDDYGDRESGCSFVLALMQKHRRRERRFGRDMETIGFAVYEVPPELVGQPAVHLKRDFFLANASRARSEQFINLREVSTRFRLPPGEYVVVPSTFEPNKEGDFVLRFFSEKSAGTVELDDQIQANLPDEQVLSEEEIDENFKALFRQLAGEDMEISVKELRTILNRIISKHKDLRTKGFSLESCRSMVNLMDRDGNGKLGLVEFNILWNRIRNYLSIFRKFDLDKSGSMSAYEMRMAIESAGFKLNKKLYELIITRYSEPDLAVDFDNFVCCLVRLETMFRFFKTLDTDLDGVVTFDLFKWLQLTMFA
T1 sequence (P04632 1-268 partner): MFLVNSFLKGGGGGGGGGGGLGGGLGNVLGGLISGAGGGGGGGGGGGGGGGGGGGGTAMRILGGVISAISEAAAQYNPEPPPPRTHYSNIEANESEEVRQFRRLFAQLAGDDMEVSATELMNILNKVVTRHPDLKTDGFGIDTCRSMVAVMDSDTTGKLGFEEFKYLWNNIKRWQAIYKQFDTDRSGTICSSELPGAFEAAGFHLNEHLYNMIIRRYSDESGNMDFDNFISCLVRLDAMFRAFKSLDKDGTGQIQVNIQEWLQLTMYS
Description: Calpain inhibition continuous fluorescence (FRET) assay, Human Calpain 1/NS1. It counts as biochemical. The following applies: read-out: Human Calpain 1/NS1 IC50. The method in brief:
(§1)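 Fluorescence increase from the cleaved 5-FAM/QXL 520 substrate, read at 490/520 nm, gave activity. Calcium was supplied with the substrate to activate the enzyme in situ after a 25C enzyme-inhibitor preincubation, and IC50s were fit from initial slopes.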

Another experiment has as its target T2, Human Calpain 2/NS1 (Homo sapiens, UniProt P17655).
T2 sequence (P17655 1-700): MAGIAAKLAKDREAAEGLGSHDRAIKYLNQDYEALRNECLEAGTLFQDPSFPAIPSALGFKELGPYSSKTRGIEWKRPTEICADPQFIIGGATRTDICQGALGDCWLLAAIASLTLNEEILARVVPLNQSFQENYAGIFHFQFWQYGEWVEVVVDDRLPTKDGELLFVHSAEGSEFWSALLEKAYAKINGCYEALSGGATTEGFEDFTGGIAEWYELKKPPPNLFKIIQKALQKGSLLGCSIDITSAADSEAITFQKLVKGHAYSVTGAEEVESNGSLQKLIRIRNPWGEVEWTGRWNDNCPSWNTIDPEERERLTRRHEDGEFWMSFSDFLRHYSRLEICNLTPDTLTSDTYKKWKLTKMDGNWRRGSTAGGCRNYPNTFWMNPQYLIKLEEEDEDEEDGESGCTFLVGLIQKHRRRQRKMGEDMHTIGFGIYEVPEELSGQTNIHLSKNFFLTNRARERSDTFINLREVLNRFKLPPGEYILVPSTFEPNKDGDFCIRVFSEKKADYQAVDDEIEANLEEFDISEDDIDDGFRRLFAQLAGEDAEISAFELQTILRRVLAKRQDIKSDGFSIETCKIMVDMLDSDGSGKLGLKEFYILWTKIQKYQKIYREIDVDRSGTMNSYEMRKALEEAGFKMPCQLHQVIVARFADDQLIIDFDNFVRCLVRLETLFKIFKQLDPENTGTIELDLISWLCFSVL
T2 sequence (P04632 1-268 partner): T1 sequence (P04632 1-268 partner)
Description: Calpain inhibition continuous fluorescence (FRET) assay, Human Calpain 2/NS1. The following applies: read-out: Human Calpain 2/NS1 IC50. It counts as biochemical. The method, boiled down:
as §1

Another experiment deals with T3, Human Calpain 9/NS1 (Homo sapiens, UniProt O14815).
T3 sequence (O14815 1-690): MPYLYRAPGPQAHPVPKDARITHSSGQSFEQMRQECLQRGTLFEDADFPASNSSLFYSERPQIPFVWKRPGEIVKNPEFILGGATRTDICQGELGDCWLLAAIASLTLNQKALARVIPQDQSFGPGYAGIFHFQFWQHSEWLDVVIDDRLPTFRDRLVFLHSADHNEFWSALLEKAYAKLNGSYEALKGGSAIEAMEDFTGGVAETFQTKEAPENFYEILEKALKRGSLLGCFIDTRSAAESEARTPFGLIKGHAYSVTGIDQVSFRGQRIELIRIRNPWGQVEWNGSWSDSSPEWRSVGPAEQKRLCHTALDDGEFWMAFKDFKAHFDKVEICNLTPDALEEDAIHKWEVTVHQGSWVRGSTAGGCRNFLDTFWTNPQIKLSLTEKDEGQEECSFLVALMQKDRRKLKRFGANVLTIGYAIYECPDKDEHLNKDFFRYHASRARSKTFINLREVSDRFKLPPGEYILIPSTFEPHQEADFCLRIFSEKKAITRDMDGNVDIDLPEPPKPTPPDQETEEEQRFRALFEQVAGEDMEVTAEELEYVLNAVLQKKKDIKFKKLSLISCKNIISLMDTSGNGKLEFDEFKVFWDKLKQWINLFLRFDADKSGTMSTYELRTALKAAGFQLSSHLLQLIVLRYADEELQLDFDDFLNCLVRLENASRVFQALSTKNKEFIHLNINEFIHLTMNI
T3 sequence (P04632 1-268 partner): T1 sequence (P04632 1-268 partner)
The experiment is described as follows: Calpain inhibition continuous fluorescence (FRET) assay, Human Calpain 9/NS1. It counts as biochemical. The conditions noted are these: read-out: Human Calpain 9/NS1 IC50. The method in brief: as §1

Experiment [1] deals with Calpain activity in SH-SY5Y cells (SBDP-150). Description: SH-SY5Y Spectrin western blot assay (SBDP-150 breakdown product, A23187-induced). It counts as cell-based. The following applies: Homo sapiens, SH-SY5Y cells, read-out: SH-SY5Y Spectrin IC50.
Experiment [2] deals with Calpain activity in SH-SY5Y cells. The experiment is described as follows: SH-SY5Y + AMC fluorescence assay (Suc-LLVY-AMC substrate). It counts as cell-based. The following applies: read-out: SH-SY5Y + AMC IC50.
[3] abbreviates: Column D, A23187-induced SBDP-150.
Where [4] appears, read: A23187-induced SBDP-150, western blot.

Consider `Cn1cnc(-c2ccccc2)c1C(=O)N[C@@H](Cc1ccccc1)C(=O)C(N)=O` [Compound 268, (S)—N-(4-amino-3,4-dioxo-1-phenylbutan-2-yl)-1-methyl-4-phenyl-1H-imidazole-5-carboxamide], for which the IC50 was below 3 µM on Human Calpain 1/NS1 (Column A); below 3 µM on Human Calpain 2/NS1 (Column B); below 3 µM on Human Calpain 9/NS1 (Column C); above 25 µM in experiment [1] (setting [3]); above 25 µM in experiment [2] (Column E).

`COc1cccc(-c2oncc2C(=O)NC(Cc2ccccc2)C(=O)C(N)=O)c1F` (centres unmarked) [Compound 595, N-(4-amino-3,4-dioxo-1-phenylbutan-2-yl)-5-(2-fluoro-3-methoxyphenyl)isoxazole-4-carboxamide]: the IC50 is below 3 µM on Human Calpain 1/NS1; below 3 µM on Human Calpain 2/NS1; below 3 µM at Human Calpain 9/NS1; 10 to 25 µM in experiment [1] (setting [4]); above 25 µM in experiment [2].

In the case of `Cn1cc(C(=O)NC(CC(F)(F)F)C(=O)C(N)=O)c(-c2ccccc2)n1` (centres unmarked) [Compound 424, N-(5-amino-1,1,1-trifluoro-4,5-dioxopentan-3-yl)-1-methyl-3-phenyl-1H-pyrazole-4-carboxamide], the IC50 on Human Calpain 1/NS1 was 3 to 10 µM; at Human Calpain 2/NS1, below 3 µM; on Human Calpain 9/NS1 it was below 3 µM; in experiment [1] (setting [4]) it was 10 to 25 µM; in experiment [2] it was above 25 µM.

With `CCn1cc(C(=O)N[C@@H](Cc2ccccc2)C(=O)C(N)=O)c(-c2ccccc2)n1` [Compound 239, (S)—N-(4-amino-3,4-dioxo-1-phenylbutan-2-yl)-1-ethyl-3-phenyl-1H-pyrazole-4-carboxamide], the IC50 at Human Calpain 1/NS1 (Column A) is below 3 µM; at Human Calpain 2/NS1 (Column B) it was below 3 µM; at Human Calpain 9/NS1 (Column C), below 3 µM; in experiment [1] (setting [3]) it was 10 to 25 µM; in experiment [2] (Column E) it was below 10 µM.

Turning to `Cc1nc(-c2ccccc2)c(C(=O)N[C@@H](CC(C)C)C(=O)C(N)=O)o1` [Compound 253, (S)—N-(1-amino-5-methyl-1,2-dioxohexan-3-yl)-2-methyl-4-phenyloxazole-5-carboxamide], the IC50 at Human Calpain 1/NS1 (Column A) is below 3 µM; on Human Calpain 2/NS1 (Column B), below 3 µM; on Human Calpain 9/NS1 (Column C), below 3 µM; in experiment [1] (setting [3]), 10 to 25 µM; in experiment [2] (Column E), above 25 µM.

Take `Cn1cc(C(=O)NC(Cc2ccccc2)C(=O)C(N)=O)c(N2CCN(C(=O)OCc3ccccc3)CC2)n1` (centres unmarked) [Compound 601, Benzyl 4-(4-((4-amino-3,4-dioxo-1-phenylbutan-2-yl)carbamoyl)-1-methyl-1H-pyrazol-3-yl)piperazine-1-carboxylate]: the IC50 at Human Calpain 1/NS1 is 3 to 10 µM; on Human Calpain 2/NS1, below 3 µM; on Human Calpain 9/NS1, 3 to 10 µM; in experiment [1] (setting [4]) it was above 25 µM; in experiment [2], above 25 µM.

On to `Cn1cc(C(=O)N[C@@H](CC(C)(C)C)C(=O)C(N)=O)c(-c2ccccc2)n1` [Compound 416, (S)—N-(1-amino-5,5-dimethyl-1,2-dioxohexan-3-yl)-1-methyl-3-phenyl-1H-pyrazole-4-carboxamide], for which the IC50 at Human Calpain 1/NS1 is below 3 µM; on Human Calpain 2/NS1, below 3 µM; at Human Calpain 9/NS1, below 3 µM; in experiment [1] (setting [4]), above 25 µM; in experiment [2], above 25 µM.

Regarding `Cn1cc(C(=O)N[C@@H](Cc2ccc(F)cc2)C(=O)C(N)=O)c(-c2ccccc2)n1` [Compound 168, (S)—N-(4-amino-1-(4-fluorophenyl)-3,4-dioxobutan-2-yl)-1-methyl-3-phenyl-1H-pyrazole-4-carboxamide], the IC50 is below 3 µM at Human Calpain 1/NS1 (Column A); below 3 µM at Human Calpain 2/NS1 (Column B); below 3 µM on Human Calpain 9/NS1 (Column C); 10 to 25 µM in experiment [1] (setting [3]); below 10 µM in experiment [2] (Column E).

For `Cc1cc(C(=O)N[C@@H](Cc2ccccc2)C(=O)CF)n(-c2ccccn2)n1` [Compound 478, (S)—N-(4-fluoro-3-oxo-1-phenylbutan-2-yl)-3-methyl-1-(pyridin-2-yl)-1H-pyrazole-5-carboxamide], the IC50 is below 3 µM on Human Calpain 1/NS1; below 3 µM on Human Calpain 2/NS1; 3 to 10 µM at Human Calpain 9/NS1; above 25 µM in experiment [1] (setting [4]); above 25 µM in experiment [2].

Consider `Cc1ccc(-c2nn(C)cc2C(=O)N[C@@H](Cc2ccccc2)C(=O)C(N)=O)cc1` [Compound 166, (S)—N-(4-amino-3,4-dioxo-1-phenylbutan-2-yl)-1-methyl-3-(p-tolyl)-1H-pyrazole-4-carboxamide], for which the IC50 on Human Calpain 1/NS1 (Column A) was below 3 µM; at Human Calpain 2/NS1 (Column B), below 3 µM; on Human Calpain 9/NS1 (Column C), below 3 µM; in experiment [1] (setting [3]), 10 to 25 µM; in experiment [2] (Column E), above 25 µM.

Turning to `Cc1cc(C(=O)NC(Cc2ccccc2)C(=O)C(N)=O)c(-n2ccc(-c3ccccc3)n2)s1` (centres unmarked) [Compound 320, N-(4-amino-3,4-dioxo-1-phenylbutan-2-yl)-5-methyl-2-(3-phenyl-1H-pyrazol-1-yl)thiophene-3-carboxamide], the IC50 was below 3 µM at Human Calpain 1/NS1; below 3 µM at Human Calpain 2/NS1; below 3 µM on Human Calpain 9/NS1; 10 to 25 µM in experiment [1] (setting [4]); above 25 µM in experiment [2].

As for `Cc1cc(C)cc(C[C@H](NC(=O)c2cn(C)nc2-c2ccccc2)C(=O)C(N)=O)c1` [Compound 331], the IC50 on Human Calpain 1/NS1 was below 3 µM; on Human Calpain 2/NS1 it was below 3 µM; on Human Calpain 9/NS1, below 3 µM; in experiment [1] (setting [4]), below 10 µM; in experiment [2], above 25 µM.

With `CC(C)CC(NC(=O)c1nsnc1-c1ccccc1)C(=O)C(N)=O` (centres unmarked) [Compound 465, N-(1-amino-5-methyl-1,2-dioxohexan-3-yl)-4-phenyl-1,2,5-thiadiazole-3-carboxamide], the IC50 at Human Calpain 1/NS1 is below 3 µM; on Human Calpain 2/NS1 it was below 3 µM; on Human Calpain 9/NS1, below 3 µM; in experiment [1] (setting [4]), below 10 µM; in experiment [2], above 25 µM.
